Consider two compounds from publication PMC10837133, “Molecular basis of Spns2-facilitated sphingosine-1-phosphate transport” (Cell Research, 2023).

Experiment [1] concerns the target T1, Spns2 (Spinster homolog 2) (Homo sapiens, UniProt Q8IVW8).
T1 sequence (Q8IVW8 1-549): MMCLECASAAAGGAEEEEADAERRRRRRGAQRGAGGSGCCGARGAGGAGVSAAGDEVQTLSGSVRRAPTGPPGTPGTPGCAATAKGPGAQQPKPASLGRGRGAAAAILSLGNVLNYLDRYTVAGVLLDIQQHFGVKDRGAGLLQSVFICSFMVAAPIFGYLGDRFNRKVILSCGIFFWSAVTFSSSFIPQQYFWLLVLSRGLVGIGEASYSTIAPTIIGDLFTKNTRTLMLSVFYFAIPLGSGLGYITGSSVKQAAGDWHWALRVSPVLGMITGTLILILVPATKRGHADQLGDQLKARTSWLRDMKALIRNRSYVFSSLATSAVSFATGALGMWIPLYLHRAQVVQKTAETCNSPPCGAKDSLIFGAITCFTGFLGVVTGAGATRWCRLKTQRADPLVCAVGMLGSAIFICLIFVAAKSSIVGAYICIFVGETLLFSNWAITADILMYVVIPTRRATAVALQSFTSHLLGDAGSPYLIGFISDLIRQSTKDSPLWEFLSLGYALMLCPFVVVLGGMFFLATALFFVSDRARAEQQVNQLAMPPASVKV
Briefly: cell-based FTY720-P transport assay, WT vs mutants.

Experiment [2] has as its target T2, Spns2 (Spinster homolog 2) (Homo sapiens, UniProt Q8IVW8).
T2 construct: Spns2fusion: PGS (Pyrococcus abyssi glycogen synthase) fused between F222 and T223 on intracellular loop 2
T2 sequence (Q8IVW8 1-222 limits assumed): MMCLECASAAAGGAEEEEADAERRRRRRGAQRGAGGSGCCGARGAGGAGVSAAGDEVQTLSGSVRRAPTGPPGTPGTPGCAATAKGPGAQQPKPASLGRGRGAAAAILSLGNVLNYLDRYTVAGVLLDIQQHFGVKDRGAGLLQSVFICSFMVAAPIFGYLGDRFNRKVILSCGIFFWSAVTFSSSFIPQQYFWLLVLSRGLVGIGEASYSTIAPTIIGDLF
T2 sequence (Q8IVW8 223-549 limits assumed): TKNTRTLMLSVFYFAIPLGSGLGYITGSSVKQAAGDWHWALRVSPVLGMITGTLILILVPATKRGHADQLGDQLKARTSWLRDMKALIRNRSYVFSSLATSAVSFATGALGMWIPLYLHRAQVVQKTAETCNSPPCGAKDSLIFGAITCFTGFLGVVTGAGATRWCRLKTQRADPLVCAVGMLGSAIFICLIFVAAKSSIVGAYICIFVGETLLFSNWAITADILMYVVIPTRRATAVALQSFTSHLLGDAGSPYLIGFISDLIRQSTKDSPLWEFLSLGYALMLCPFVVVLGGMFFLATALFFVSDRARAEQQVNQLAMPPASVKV
Briefly: cryo-EM structure ([…] Å); affinity selection mass spectrometry; cell-based S1P efflux assay. The class given is binding.

Structures are written as SMILES.

`CCCCCCCCc1ccc(CC[C@](N)(CO)COP(=O)(O)O)cc1` [FTY720-P]: in experiment [1], the “cell-based FTY720-P transport assay, WT vs mutants” value was “substitutions also significantly decreased FTY720-P transport activity, which indicates a similar FTY720-P transport mechanism as S1P”. With `CCCCCCCCCCCCC/C=C/[C@@H](O)[C@@H](N)COP(=O)(O)O` [S1P, sphingosine-1-phosphate], the “cryo-EM structure (3.60 Å); affinity selection mass spectrometry; cell-based S1P” value in experiment [2] is “The affinity selection mass spectrometry results confirmed that endogenous S1P bound to Spns2fusion”.
